The nature of data set [1]: Solubility in water and various pH media. Format: physicochemical. The note with it: thermodynamic from solid.
Data set [2] can be described thus: Physicochemical stability study of crystal forms (XRPD and HPLC). An excerpt:
Use XRPD and HPLC to detect the physical and chemical stability of the samples.

The nature of data set [3]: Pharmacokinetic study in ICR mice. Format: in vivo. The settings on record: male, mouse, po, 10 mg·kg^-1 by gavage, plasma. Here is the method:
Each compound was prepared into a 10 mg/mL stock solution with DMSO.
Mixed solvent preparation: Tween 80:PEG 400:Water=1:9:90 (v/v/v).
Accurately aspirated 450 μL of DMSO stock solution of the compounds at a concentration of 10 mg/mL to a glass vial, respectively, added an appropriate volume of DMSO and mixed solvent, the ratio of solvent in the final preparation is DMSO:mixed solvent (v/v)=10:90, vortexed (or sonicated), dispersed homogeneously, to obtain the concentration of 1 mg/mL of 4.5 mL of the administered test solution respectively.
Male 6-10 weeks old ICR mice (mouse source: Viton Lever Laboratory Animal Technology Co., Ltd.) were taken, 6 mice in each group, and the mice were fasted overnight and fed 4 hours after drug administration. On the day of the experiment, mice were given 10 mg·kg^−1 of compound test solution by gavage respectively. After the administration of the drug, mice were blood sampled at 0, 5 min, 15 min, 30 min, 1 h, 2 h, 4 h, 8 h, and 24 h from the orbital region of about […], which was placed in EDTA-K2 anticoagulant tubes. […] Plasma concentration was determined by LC-MS/MS method.
Pharmacokinetic parameters were calculated using the non-compartment model in Pharsight Phoenix 7.0, and the results are detailed in the following table.

[4] abbreviates: After placement, 40° C./75% RH, 5 days.
The mark [5] stands for this setting: After placement, 40° C./75% RH, 10 days.
Where [6] appears, read: After placement, 40° C./75% RH, 30 days.
The mark [7] stands for this setting: After placement, 60° C., 5 days.
The mark [8] stands for this setting: After placement, 60° C., 10 days.
[9] abbreviates: After placement, 60° C., 30 days.
Setting [10] is: After placement, 75% RH, 5 days.
Setting [11] is: After placement, 75% RH, 10 days.
Setting [12] is: After placement, 75% RH, 30 days.
Where [13] appears, read: After placement, 92.5% RH, 5 days.
Where [14] appears, read: After placement, 92.5% RH, 10 days.
Setting [15] is: After placement, Light, 10 days.

`COCc1ccc(Nc2nc(Nc3ccc4c(c3)CC[C@@H](N3CCCC3)CC4)ncc2Cl)c(P(C)(C)=O)c1.Cc1ccc(S(=O)(=O)O)cc1` [crystal form B, mono-p-toluenesulfonate monohydrate of (S)-(2-((5-chloro-2-((7-(pyrrolidin-1-yl)-6,7,8,9-tetrahydro-5H-benzo[7]annulen-2-yl)amino)pyrimidin-4-yl)amino)-5-(methoxymethyl)phenyl)dimethylphosphine oxide]: the solubility (usually the dissolved amount per volume that the medium holds) in data set [1] (potassium dihydrogen phosphate/sodium hydroxide buffer, aqueous buffer, pH 6.0, potassium dihydrogen phosphate/sodium hydroxide) is 1900 µg/mL; in data set [1] (potassium dihydrogen phosphate/sodium hydroxide buffer, aqueous buffer, pH 6.8, potassium dihydrogen phosphate/sodium hydroxide), 2100 µg/mL; in data set [1] (potassium dihydrogen phosphate/sodium hydroxide buffer, aqueous buffer, pH 7.4, potassium dihydrogen phosphate/sodium hydroxide), 2100 µg/mL; in data set [1] (simulated gastric fluid, pH 1.0, dilute hydrochloric acid with water) it was 87200 µg/mL; in data set [1] (simulated gastric fluid, pH 2.0, dilute hydrochloric acid with water) it was 4700 µg/mL; in data set [1] (sodium acetate trihydrate/glacial acetic acid buffer, aqueous buffer, pH 4.5, sodium acetate trihydrate/glacial acetic acid), 2000 µg/mL. In data set [1] (water), this molecule showed a solubility of 1400 µg/mL. Besides, the Crystal form entry in data set [2] (setting [4]), in data set [2] (setting [5]), in data set [2] (setting [6]), in data set [2] (setting [7]), in data set [2] (setting [8]) and in data set [2] (setting [9]) was “Crystal form B” each time. The Crystal form result in data set [2] (setting [10]) is “Crystal form B”; in data set [2] (setting [11]) it was “Crystal form B”; in data set [2] (setting [12]), “Crystal form B”; in data set [2] (setting [13]), “Crystal form B”; in data set [2] (setting [14]), “Crystal form B”; in data set [2] (After placement, Light, 5 days) it was “Crystal form B”. Besides, the Crystal form entry in data set [2] (setting [15]) and in data set [2] (Before placement) was “Crystal form B” throughout. For the same molecule, the Maximum single impurity entry in data set [2] (setting [4]), in data set [2] (setting [5]), in data set [2] (setting [6]), in data set [2] (setting [7]), in data set [2] (setting [8]) and in data set [2] (setting [9]) was “Maximum single impurity: 0.04 A %” each time. Also, the Maximum single impurity result is listed as “Maximum single impurity: 0.04 A %” in data set [2] (setting [10]); “Maximum single impurity: 0.04 A %” in data set [2] (setting [11]); “Maximum single impurity: 0.04 A %” in data set [2] (setting [12]); “Maximum single impurity: 0.04 A %” in data set [2] (setting [13]); “Maximum single impurity: 0.04 A %” in data set [2] (setting [14]); “Maximum single impurity: 0.05 A %” in data set [2] (After placement, Light, 5 days). Also, the results for the Maximum single impurity entry in data set [2] (setting [15]) and in data set [2] (Before placement) were “Maximum single impurity: 0.10 A %” and “impurity: 0.04 A %”, respectively. Besides, the Purity result is recorded as “Purity: 99.81 A %” in data set [2] (setting [4]); “Purity: 99.82 A %” in data set [2] (setting [5]); “Purity: 99.81 A %” in data set [2] (setting [6]); “Purity: 99.81 A %” in data set [2] (setting [7]); “Purity: 99.82 A %” in data set [2] (setting [8]); “Purity: 99.80 A %” in data set [2] (setting [9]). The Purity entry is recorded as “Purity: 99.81 A %” in data set [2] (setting [10]); “Purity: 99.82 A %” in data set [2] (setting [11]); “Purity: 99.80 A %” in data set [2] (setting [12]); “Purity: 99.81 A %” in data set [2] (setting [13]); “Purity: 99.82 A %” in data set [2] (setting [14]); “Purity: 99.67 A %” in data set [2] (After placement, Light, 5 days). Also, the Purity entry in data set [2] (setting [15]) is reported as “Purity: 99.60 A %”; in data set [2] (Before placement), “Purity: 99.81 A %”.

As to `COCc1ccc(Nc2nc(Nc3ccc4c(c3)CC[C@@H](N3CCCC3)CC4)ncc2Cl)c(P(C)(C)=O)c1` [Example 1, (S)-(2-((5-chloro-2-((7-(pyrrolidin-1-yl)-6,7,8,9-tetrahydro-5H-benzo[7]annulen-2-yl)amino)pyrimidin-4-yl)amino)-5-(methoxymethyl)phenyl)dimethylphosphine oxide], the half-life (in general, the time needed for the level to fall by half in the phase considered) in data set [3] is 1.35 h.

As for `COCc1ccc(Nc2nc(Nc3ccc4c(c3)CC[C@@H](N3CCCC3)CC4)ncc2Cl)c(P(C)(C)=O)c1` [free base crystal form A, (S)-(2-((5-chloro-2-((7-(pyrrolidin-1-yl)-6,7,8,9-tetrahydro-5H-benzo[7]annulen-2-yl)amino)pyrimidin-4-yl)amino)-5-(methoxymethyl)phenyl)dimethylphosphine oxide], the Crystal form result in data set [2] (setting [7]), in data set [2] (setting [8]) and in data set [2] (Before placement) was “Crystal form A” each time. Moreover, the Maximum single impurity entry in data set [2] (setting [7]) is recorded as “impurity: 0.75 A %”; in data set [2] (setting [8]) it was “impurity: 1.21 A %”; in data set [2] (setting [9]) it was “impurity: 2.02 A %”; in data set [2] (Before placement) it was “impurity: 0.05 A %”. Further, the Purity entry in data set [2] (setting [7]) is recorded as “Purity: 96.39 A %”; in data set [2] (setting [8]), “Purity: 94.49 A %”; in data set [2] (setting [9]), “Purity: 89.65 A %”; in data set [2] (Before placement), “Purity: 99.33 A %”.

On to `CN1CCN(Cc2ccc(Nc3ncc(Cl)c(Nc4ccccc4S(=O)(=O)N(C)C)n3)cc2)CC1` [Positive drug 2 (TP0903), reference compound], for which the half-life in data set [3] is 1.2 h.

The values above are taken from patent publication US20250026773A1, “MONO-P-TOLUENESULFONATE OF AXL KINASE INHIBITOR AND CRYSTAL FORM THEREOF” (NANJING CHIA TAI TIANQING PHARMACEUTICAL CO., LTD., priority 2021, published 2025).
